The values that follow come from patent publication US20240368164A1, “PURINE NUCLEOSIDES, THEIR INTERMEDIATES, AND METHODS OF PREPARATION THEREOF” (Astrocyle Pharmaceuticals, Inc., priority 2021, published 2024).

pKi: −log10 of the molar value.

One data set addresses T1, Human A3R (Homo sapiens, UniProt P0DMS8).
T1 construct: expressed in transfected cells
T1 sequence (P0DMS8 1-318): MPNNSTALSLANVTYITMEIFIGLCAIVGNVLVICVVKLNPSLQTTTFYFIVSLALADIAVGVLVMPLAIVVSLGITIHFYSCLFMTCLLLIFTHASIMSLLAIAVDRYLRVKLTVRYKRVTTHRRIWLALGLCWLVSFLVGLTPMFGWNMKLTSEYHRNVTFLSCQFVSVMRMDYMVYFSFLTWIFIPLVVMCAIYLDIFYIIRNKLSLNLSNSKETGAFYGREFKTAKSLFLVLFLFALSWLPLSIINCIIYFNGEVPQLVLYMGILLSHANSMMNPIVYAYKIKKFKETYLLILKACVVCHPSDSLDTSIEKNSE
Briefly: Radioligand binding at human A3 adenosine receptor ([125I]I-AB-MECA, CHO cell membranes). The following applies: n = 1; read-out: Affinity (nM) at Human A3R. As for the experimental part:
[3H]R—N^6-Phenylisopropyladenosine ([3H]R-PIA, 63 Ci/mmol), [^3H](2-[p-(2-carboxyethyl)phenyl-ethylamino]-5′-N-ethylcarboxamido-adenosine) ([^3H]CGS21680, 40.5 Ci/mmol) and [^125I]N^6-(4-amino-3-iodobenzyl)adenosine-5′-N-methyluronamide ([^125I]I-AB-MECA, 2200 Ci/mmol) were purchased from Perkin-Elmer Life and Analytical Science (Boston, MA). Test compounds were prepared as 5 mM stock solutions in DMSO and stored frozen.
Cell Culture and Membrane Preparation—CHO cells stably expressing the recombinant hA1 and hA3ARs and HEK293 cells stably expressing the hA2AAR were cultured in Dulbecco's modified Eagle medium (DMEM) and F12 (1:1) supplemented with 10% fetal bovine serum, 100 units/mL penicillin, 100 μg/mL streptomycin, and 2 μmol/mL glutamine. In addition, 800 μg/mL geneticin was added to the A2A media, while 500 μg/mL hygromycin was added to the A1 and A3 media. After harvesting, cells were homogenized and suspended in PBS. Cells were then centrifuged at 240 g for 5 min, and the pellet was resuspended in 50 mM Tris-HCl buffer (pH 7.5) containing 10 mM MgCl2. The suspension was homogenized and was then ultra-centrifuged at 14,330 g for 30 min at 4° C. The resultant pellets were resuspended in Tris buffer, incubated with adenosine deaminase (3 units/mL) for 30 min at 37° C. The suspension was homogenized with an electric homogenizer for 10 sec, pipetted into 1 mL vials and then stored at −80° C. until the binding experiments. The protein concentration was measured using the BCA Protein Assay Kit from Pierce Biotechnology, Inc. (Rockford, IL).
Binding assays: Into each tube in the binding assay was added 50 μL of increasing concentrations of the test ligand in Tris-HCl buffer (50 mM, pH 7.5) containing 10 mM MgCl2, 50 μL of the appropriate agonist radioligand, and finally 100 μL of membrane suspension. For the A1AR (22 μg of protein/tube) the radioligand used was [^3H]R-PIA (final concentration of 3.5 nM). For the A2AAR (20 μg/tube) the radioligand used was [^3H]CGS21680 (10 nM). For the A3AR ([…]) the radioligand used was [^125I]I-AB-MECA (0.34 nM). Nonspecific binding was determined using a final concentration of 10 μM NECA diluted with the buffer. The mixtures were incubated at 25° C. for 60 min in a shaking water bath. Binding reactions were terminated by filtration through Brandel GF/B filters under a reduced pressure using a M-24 cell harvester (Brandel, Gaithersburg, MD). Filters were washed three times with 3 mL of 50 mM ice-cold Tris-HCl buffer (pH 7.5). Filters for A1 and A2AAR binding were placed in scintillation vials containing 5 mL of Hydrofluor scintillation buffer and counted using a Perkin Elmer Liquid Scintillation Analyzer (Tri-Carb 2810TR). Filters for A3AR binding were counted using a Packard Cobra II T-counter. The Ki values were determined using GraphPad Prism for all assays.
A3R binding of selected compounds. Using methods described herein, the affinity of selected compounds at the A3 receptor was measured.

A further data set concerns the target P2Y1R (Homo sapiens, UniProt P47900). Particulars: reference 6; cited from earlier work.
A further data set has as its target T2, A3AR (Homo sapiens, UniProt P0DMS8).
T2 sequence (P0DMS8 1-318): T1 sequence (P0DMS8 1-318)
Particulars: reference 5; cited from earlier work.

A short description of data set [1]: Plasma protein binding (free fraction). It counts as in vitro ADME, mouse. From the text:
(§1) Example 3 of U.S. Pat. No. 9,789,131, which is incorporated herein by reference, describes assays for determining the plasma and brain free fraction of certain compounds such as I-1. Compounds described herein may be evaluated using such assays or similar variants thereof.

Data set [2] is described as follows: Nonspecific brain tissue binding (free fraction). The format is in vitro ADME, mouse. Particulars: brain tissue.
Description: as §1

Data set [3] concerns photothrombosis-induced stroke in mice. Briefly: Mouse photothrombotic stroke model. Particulars: mouse, stroke. The format is in vivo. As for the experimental part: Photothrombosis-induced Stroke: Photothrombosis is performed as described in Zheng et al 2010 (PloS One 5 (12): e14401). In brief, Rose Bengal is a fluorescent dye that when injected into the vasculature and excited, generates singlet oxygen that damages the endothelial wall and induces a local thrombosis (clot). Using this technique, mice are given a 0.1 mL tail-vein injection of sterilized Rose Bengal (RB, Sigma, U.S.A.) in artificial cerebral spinal fluid (aCSF). The RB concentration is 20 mg/mL. A cortical region is centered in the imaging field and illuminated with a green laser (543 nm, 5 mW) using a 0.8-NA 40× water-immersion objective (Nikon, Tokyo). The clot formation is monitored in real time until the targeted vessel or downstream capillaries are firmly occluded. Stable clots are subsequently identified by a non-fluorescent vessel segmentation ending with highly fluorescent regions. […] Treatments, at doses such as 0.5 μmol/kg are introduced via intraperitoneal injections (i.p.). For experiments with A3 receptor antagonist MRS1523, mice are administered intraperitoneal injections (2 mg/kg) at the 0 and 2 hour timepoints to ensure receptor antagonism throughout the course of the study.
Animals and Photothrombosis-induced Stroke: Stroke is performed as described in Zheng et al 2010 (PloS One 5 (12): e14401). Female C57Bl/6 mice (4-6 months) are used in this study. From the methods of this manuscript: Mice are anesthetized at 3% isoflurane with 100% oxygen and subsequently maintained at 1% isoflurane through a nosecone. Depth of anesthesia is monitored and regulated according to vital signs, pinch withdrawal and eye blinks. Body temperature is maintained at 37° C. by a feedback-controlled heating pad (Gaymar T/Pump). Vital signs including oxygen saturation, respiratory rate, and heart rate are continuously monitored by using the MouseOx system (STARR Life Sciences). […]
Post photothrombotic infarction evaluation. The size of cerebral infarcts is evaluated using 2,3,5-Triphenyltetrazolium chloride (TTC) staining as described in Zheng et al 2010 (PloS One 5 (12): e14401). […]

Data set [4] has as its system traumatic brain injury (TBI) in mice. Briefly: Mouse traumatic brain injury (TBI) model. It counts as in vivo. The method, then:
Animals and traumatic brain injury (TBI): TBI is performed with a controlled closed skull injury model as described in Talley-Watts et al. 2012 (J. Neurotrauma 30, 55-66). Following the method described therein, a pneumatic impact device is used to generate a moderate TBI leaving the skull and dura matter intact. To achieve this, C57BL/6 mice are anesthetized with isoflurane (3% induction, 1% maintenance) in 100% oxygen. A body temperature of 37° C. is maintained using a temperature-controlled heated surgical table. A small midline incision is made on the scalp using aseptic surgical techniques. A 5 mm stainless steel disc is positioned on the skull and fixed using superglue on the right parietal bone between bregma and lamda over the somatosensory cortex. The mouse is then positioned on a stage directly under the pneumatic impact tip. […] Mice are placed in a Thermo-Intensive Care Unit (Braintree Scientific model FV-1; 37° C.; 27% O2) and monitored until fully awake and moving freely. […]
Western Blot Analysis for GFAP: At selected survival times, mice are anesthetized under isoflurane and sacrificed. […] The homogenate is transferred to a 2 mL tube and centrifuged at 1000 g for 10 minutes at 4° C. and the supernatant is collected and analyzed. Protein concentration is determined by the BCA assay using a 1:50 dilution. […]

P2Y1R, sequence (P47900 whole entry): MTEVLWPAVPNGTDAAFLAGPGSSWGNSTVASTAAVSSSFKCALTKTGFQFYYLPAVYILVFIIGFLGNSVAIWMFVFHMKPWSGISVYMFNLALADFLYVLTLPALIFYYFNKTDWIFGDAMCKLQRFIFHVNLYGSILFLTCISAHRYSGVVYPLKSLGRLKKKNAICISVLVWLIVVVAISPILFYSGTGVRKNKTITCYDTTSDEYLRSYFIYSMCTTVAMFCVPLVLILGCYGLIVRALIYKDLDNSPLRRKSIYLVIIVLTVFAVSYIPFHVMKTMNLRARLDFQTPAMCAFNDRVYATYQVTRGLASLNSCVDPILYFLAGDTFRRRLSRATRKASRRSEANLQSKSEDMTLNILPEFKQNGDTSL

With `CCSc1nc(N)c2ncn([C@H]3[C@H](O)[C@H](O)[C@]4(CO)C[C@H]34)c2n1` [Compound I-2, (1R,2R,3S,4R,5S)-4-(6-Amino-2-(ethylthio)-9H-purin-9-yl)-1-(hydroxymethyl)bicyclo[3.1.0]hexane-2,3-diol], on Human A3R, the Ki came to 909 nM. What is called pKi is the Ki on a negative log10 scale, so that one unit is a factor of ten. Consider `CSc1nc(N)c2ncn([C@H]3C(O)[C@@H](O)[C@]4(COP(=O)(O)OP(=O)(O)O)C[C@H]34)c2n1` (stereo partly drawn) [MRS2365], for which the pKi at P2Y1R was 9.40. Consider `CNC(=O)[C@@]12C[C@@H]1[C@@H](n1cnc3c(NCc4cccc(Cl)c4)nc(SC)nc31)C(O)[C@H]2O` (stereo partly drawn) [MRS3611], for which the pKi on A3AR was 8.82. In the case of `CNC(=O)[C@H]1O[C@@H](n2cnc3c(NCc4cccc(I)c4)nc(Cl)nc32)[C@H](O)[C@@H]1O` [Cl-IB-MECA, reference compound], in data set [1], the “free (unbound) fraction in plasma” value turned out to be 0.002. In data set [2], the “free (unbound) fraction in brain” value worked out at 0.002. Moreover, the “efficacy in mouse photothrombotic stroke model” value in data set [3] was “inactive”. Further, the “efficacy in mouse TBI model” value in data set [4] was “weakly active”. Consider `Nc1nc(SCc2ccccc2)nc2c1ncn2[C@H]1[C@H](O)[C@H](O)[C@]2(CO)C[C@H]12` [Compound I-5, (1R,2R,3S,4R,5S)-4-(6-Amino-2-(benzylthio)-9H-purin-9-yl)-1-(hydroxymethyl)bicyclo[3.1.0]hexane-2,3-diol], for which the Ki at Human A3R amounted to 55 nM. As for `Nc1nc(SC2CCCCC2)nc2c1ncn2[C@H]1[C@H](O)[C@H](O)[C@]2(CO)C[C@H]12` [Compound I-4, (1R,2R,3S,4R,5S)-4-(6-Amino-2-(cyclohexylthio)-9H-purin-9-yl)-1-(hydroxymethyl)bicyclo[3.1.0]hexane-2,3-diol], the Ki on Human A3R was 1170 nM.

On to `CCCCCCSc1nc(N)c2ncn([C@H]3[C@H](O)[C@H](O)[C@]4(CO)C[C@H]34)c2n1` [Compound I-3, (1R,2R,3S,4R,5S)-4-(6-Amino-2-(hexylthio)-9H-purin-9-yl)-1-(hydroxymethyl)bicyclo[3.1.0]hexane-2,3-diol], for which, at Human A3R, the Ki amounted to 504 nM. Consider `COc1nc(N)c2ncn([C@H]3[C@H](O)[C@H](O)[C@]4(CO)C[C@H]34)c2n1` [Compound I-7, (1R,2R,3S,4R,5S)-4-(6-Amino-2-methoxy-9H-purin-9-yl)-1-(hydroxymethyl)bicyclo[3.1.0]hexane-2,3-diol], for which the Ki at Human A3R was found to be 1050 nM.

Turning to `Nc1nc(SCCc2ccccc2)nc2c1ncn2[C@H]1[C@H](O)[C@H](O)[C@]2(CO)C[C@H]12` [Compound I-6, (1R,2R,3S,4R,5S)-4-(6-Amino-2-(phenethylthio)-9H-purin-9-yl)-1-(hydroxymethyl)bicyclo[3.1.0]hexane-2,3-diol], the Ki on Human A3R turned out to be 379 nM.
